Source: patent US20240368232A1, “ANTIVIRAL LARAZOTIDE DERIVATIVES” (priority 2021, published 2024)
Read-outs that look alike come from different tables or passages of the source. Square brackets hold non-standard residues; d marks the D form. Peptide text beside a SMILES is read from it.

What was measured:
[1] = test system: SARS-COV-2 SA (RG) strain; assay: microbe, parasite or virus in culture; details: Severe acute respiratory syndrome coronavirus 2, Vero, read-out: Antiviral activity EC50 SA (RG) strain Vero cells
[2] = test system: SARS-COV-2 SA (RG) strain

| Structure (SMILES) | EC50 [1] [nM] | EC50 [2] [nM] |
| --- | --- | --- |
| CCC(CC)COC(=O)[C@H](C)N[P@](=O)(OC[C@H]1O[C@@](C#N)(c2ccc3c(N)ncnn23)[C@H](O)[C@@H]1O)Oc1ccccc1 [Remdesivir] | 840 | – |
| CC(=O)NCC(=O)N[C@H](Cc1ccccc1)C(=O)N[C@H](C=O)Cc1c[nH]cn1 [TRIP 5] (Ac-Gly-[dF]-His-aldehyde) | – | > 100000 |
